Patent US9221838B2, “Inhibitors of AKT activity” (ALMAC DISCOVERY LIMITED, priority 2009, dated 2015)

What was measured:
Type in all cases: biochemical
AKT1 = biological target: T1, AKT1 (Homo sapiens, UniProt P31749); experiment: AKT Kinase Assay (IMAP fluorescent polarisation) vs AKT1
T1 construct: purchased SignalChem
Procedure: (§1) Testing of the compounds was performed using an AKT Kinase Assay:
(§2) Activated AKT isoforms 1, 2 and 3 were assayed utilising a 5′ FAM Crosstide (Seq. GRPRTSSFAEG-OH)(SEO ID NO: 1). The extent of kinase phosphorylation was determined by fluorescent polarisation using IMAP progressive binding reagent, which introduces binding beads which allow the reagent to specifically bind to phosphate residues via covalent co-ordination complex bonds.
(§3) iMAP binding solution stops Crosstide/kinase interaction and specifically binds phosphorylated substrates. The degree of phosphorylation is determined by fluorescent polarisation (excitation 485 nm; emission 528 nm) or the reduction in speed of rotation of the excited substrate.
(§4) The following materials were used in the assay: • a) Activated AKT isoforms (SignalChem.) dissolved in Complete Reaction buffer at a pre-determined concentration selected so that the assay was carried out in the linear range. • b) AKT substrate peptide: FAM Crosstide (R7110) Molecular Devices, diluted in complete reaction buffer. • c) iMAP Progressive Screening Express Kit (R8127) Molecular Devices • d) Complete Reaction Buffer containing 0.1% BSA, 10 mM Tris-HCl, 10 mM MgCl2, 0.05% NaN3 and 0.01% phosphate free BSA, 1 mM DTT • e) Progressive Binding Solution containing 75% Buffer A, 25% Buffer B and low volume Binding Reagent which contains the binding entity for the assay • f) ATP diluted in complete reaction buffer • g) Black polystyrene 384 well assay plates (Nunc). • h) Biotek Synergy 4 Hybrid Plate reader.
(§5) 5 μl of test compound was dissolved in DMSO (Sigma Aldrich) and serially diluted in complete reaction buffer to give a fourteen point half log dose response and plated into 384 well black plates. The compound was incubated at room temperature with activated AKT isoform ([…] ) at the pre-determined concentration, for 45 minutes.
(§6) 2.5 μl of ATP solution mixed with 2.5 μl of AKT substrate peptide (FAM Crosstide (R7110) Molecular Devices) were dispensed into each well and the plate centrifuged at 1000 rpm for 20 seconds to ensure homogenous mixing of reagents. The reaction mix was incubated in the dark for one hour at room temperature.
(§7) The kinase reaction was stopped by the addition of Progressive Binding Solution and the mixture allowed to equilibrate for one hour in the dark, at room temperature.
(§8) The fluorescent polarisation generated in each well was determined using a […] Synergy 4 Hybrid plate reader. In brief, each reaction solution was excited at 485 nm with the emission measured at 528 nm in both the parallel and perpendicular pathway.
(§9) The polarisation value generated in each well was calculated by Gen5 software (Biotek) and the % inhibition of kinase activity compared to vehicle control was calculated via GraphPad Prism. IC50 values for each compound were calculated by non-linear regression analysis using Prism software.
(§10) All plates were internally controlled by two methods. Firstly, by calculating the signal:noise ratio; based on kinase polarisation without inhibitor and polarisation generated by complete reaction buffer in the absence of activated kinase. Secondly by determining IC50 values generated by known inhibitors of the AKT isoforms.

AKT2 = biological target: T2, AKT2 (Homo sapiens, UniProt P31751); experiment: AKT Kinase Assay (IMAP fluorescent polarisation) vs AKT2
T2 construct: purchased SignalChem
Procedure: as §1, §2, §3, §4, §5, §6, §7, §8, §9, §10

AKT3 = biological target: T3, AKT3 (Homo sapiens, UniProt Q9Y243); experiment: AKT Kinase Assay (IMAP fluorescent polarisation) vs AKT3
T3 construct: purchased SignalChem
Procedure: as §1, §2, §3, §4, §5, §6, §7, §8, §9, §10

T2 sequence (P31751 whole entry): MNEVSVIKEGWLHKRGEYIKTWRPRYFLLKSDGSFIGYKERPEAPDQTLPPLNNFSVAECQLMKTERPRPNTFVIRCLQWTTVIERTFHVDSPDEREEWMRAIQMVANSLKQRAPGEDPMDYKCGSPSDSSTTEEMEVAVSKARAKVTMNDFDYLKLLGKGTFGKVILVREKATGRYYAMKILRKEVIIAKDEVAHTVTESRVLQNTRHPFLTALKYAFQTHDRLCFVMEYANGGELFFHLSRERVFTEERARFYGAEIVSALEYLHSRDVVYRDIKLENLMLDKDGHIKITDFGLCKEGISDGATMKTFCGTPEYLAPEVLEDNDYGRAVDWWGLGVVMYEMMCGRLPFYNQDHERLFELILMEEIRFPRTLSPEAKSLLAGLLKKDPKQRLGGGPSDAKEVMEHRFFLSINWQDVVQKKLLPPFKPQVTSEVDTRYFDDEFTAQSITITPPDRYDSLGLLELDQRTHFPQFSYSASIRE
T1 sequence (P31749 whole entry): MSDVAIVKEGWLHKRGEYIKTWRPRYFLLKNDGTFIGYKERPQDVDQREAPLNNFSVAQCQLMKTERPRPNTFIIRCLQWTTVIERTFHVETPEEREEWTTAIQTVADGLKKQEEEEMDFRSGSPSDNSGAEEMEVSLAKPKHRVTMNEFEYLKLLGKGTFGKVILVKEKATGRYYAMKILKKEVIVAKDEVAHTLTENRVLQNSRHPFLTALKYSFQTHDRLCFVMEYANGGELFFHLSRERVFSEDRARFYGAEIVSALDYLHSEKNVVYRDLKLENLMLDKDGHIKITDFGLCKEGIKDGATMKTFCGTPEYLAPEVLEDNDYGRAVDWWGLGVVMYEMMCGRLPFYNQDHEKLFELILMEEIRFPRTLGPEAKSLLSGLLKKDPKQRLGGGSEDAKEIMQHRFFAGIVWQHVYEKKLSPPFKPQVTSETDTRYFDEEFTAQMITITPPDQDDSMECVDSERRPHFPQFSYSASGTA
T3 sequence (Q9Y243 whole entry): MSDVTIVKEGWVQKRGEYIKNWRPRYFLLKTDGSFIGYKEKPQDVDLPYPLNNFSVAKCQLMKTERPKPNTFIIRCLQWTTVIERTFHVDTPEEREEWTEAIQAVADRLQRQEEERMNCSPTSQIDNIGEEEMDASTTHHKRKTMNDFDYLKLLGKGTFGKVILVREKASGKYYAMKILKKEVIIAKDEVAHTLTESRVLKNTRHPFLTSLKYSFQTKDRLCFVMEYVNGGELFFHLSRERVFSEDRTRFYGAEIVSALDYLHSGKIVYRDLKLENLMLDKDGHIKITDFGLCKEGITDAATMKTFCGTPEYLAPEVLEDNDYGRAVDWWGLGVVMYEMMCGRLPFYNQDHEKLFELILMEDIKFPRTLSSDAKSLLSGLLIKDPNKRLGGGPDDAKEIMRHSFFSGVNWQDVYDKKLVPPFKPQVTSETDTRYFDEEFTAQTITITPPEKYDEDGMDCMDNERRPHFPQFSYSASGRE

| IC50 (AKT1) | IC50 (AKT2) | IC50 (AKT3) | Compound |
| --- | --- | --- | --- |
| 100 to 1000 nM | 1000 to 10000 nM | 1000 to 10000 nM | Cc1nc2c([nH]1)CCc1nc(-c3ccc(C4(N)CCC4)cc3)c(-c3ccccc3)cc1-2 [Example 15, 1-(4-(2-methyl-8-phenyl-4,5-dihydro-3H-imidazo[4,5-f]quinolin-7-yl)phenyl)cyclobutanamine] |
| 100 to 1000 nM | 1000 to 10000 nM | 1000 to 10000 nM | Nc1ncc2c(n1)-c1cc(-c3ccccc3)c(-c3ccc(C4(N)CCC4)cc3)nc1CC2 [Example 17] |
| ≤ 100 nM | 1000 to 10000 nM | > 10000 nM | NC1(c2ccc(-c3nc4c(cc3-c3ccccc3)C(=O)NCC4)cc2)CCC1 [Example 22, 2-(4-(1-aminocyclobutyl)phenyl)-3-phenyl-7,8-dihydro-1,6-naphthyridin-5(6H)-one] |
| 1000 to 10000 nM | 100 to 1000 nM | > 10000 nM | N#CCN1CCc2nc(-c3ccc(C4(N)CCC4)cc3)c(-c3ccccc3)cc2C1=O [Example 24, 2-(2-(4-(1-aminocyclobutyl)phenyl)-5-oxo-3-phenyl-7,8-dihydro-1,6-naphthyridin-6(5H)-yl)acetonitrile] |
| ≤ 100 nM | 1000 to 10000 nM | > 10000 nM | NC1(c2ccc(-c3nc4c(cc3-c3ccccc3)-c3n[nH]c(=O)n3CC4)cc2)CCC1 [Example 26, 8-(4-(1-aminocyclobutyl)phenyl)-9-phenyl-5,6-dihydro-[1,2,4]triazolo[3,4][1,6]naphthyridin-3(2H)-one] |
| 1000 to 10000 nM | > 10000 nM | > 10000 nM | CCN1CCc2nc(-c3ccc(C4(N)CCC4)cc3)c(-c3ccccc3)cc2C1 [Example 27, 1-(4-(6-ethyl-3-phenyl-5,6,7,8-tetrahydro-1,6-naphthyridin-2-yl)phenyl)cyclobutanamine] |

The remaining lines, values behind:

| Compound | IC50 (AKT1) | IC50 (AKT2) | IC50 (AKT3) |
| --- | --- | --- | --- |
| NC1(c2ccc(-c3nc4c(cc3-c3ccccc3)-c3ncncc3CC4)cc2)CCC1 [Example 16, 1-(4-(9-phenyl-5,6-dihydropyrido[2,3-h]quinazolin-8-yl)phenyl)-cyclobutanamine] | ≤ 100 nM | 100 to 1000 nM | 1000 to 10000 nM |
| CC1(C)CC(=O)c2cc(-c3ccccc3)c(-c3ccc(C4(N)CCC4)cc3)nc2C1 [Example 18, 2-(4-(1-aminocyclobutyl)phenyl)-7,7-dimethyl-3-phenyl-7,8-dihydroquinolin-5(6H)-one] | 1000 to 10000 nM | 1000 to 10000 nM | > 10000 nM |
| CC1(C)Cc2nc(-c3ccc(C4(N)CCC4)cc3)c(-c3ccccc3)cc2-c2n[nH]cc21 [Example 19, 1-(4-(4,4-dimethyl-8-phenyl-4,5-dihydro-2H-pyrazolo[3,4-f]quinolin-7-yl)phenyl)cyclobutanamine] | 100 to 1000 nM | 100 to 1000 nM | > 10000 nM |
| NC1(c2ccc(-c3nc4c(cc3-c3ccccc3)C(=O)CCCC4)cc2)CCC1 [Example 20, 2-(4-(1-aminocyclobutyl)phenyl)-3-phenyl-6,7,8,9-tetrahydro-5H-cyclohepta[b]pyridin-5-one] | 100 to 1000 nM | 1000 to 10000 nM | > 10000 nM |
| NC1(c2ccc(-c3nc4c(cc3-c3ccccc3)-c3n[nH]cc3CCC4)cc2)CCC1 [Example 21, 1-(4-(9-phenyl-2,4,5,6-tetrahydropyrazolo[3′,4′:3,4]cyclohepta[1,2-b]pyridin-8-yl)phenyl)cyclobutanamine] | 100 to 1000 nM | 1000 to 10000 nM | > 10000 nM |
| CN1CCc2nc(-c3ccc(C4(N)CCC4)cc3)c(-c3ccccc3)cc2C1=O [Example 23, 2-(4-(1-aminocyclobutyl)phenyl)-6-methyl-3-phenyl-7,8-dihydro-1,6-naphthyridin-5(6H)-one] | 100 to 1000 nM | 1000 to 10000 nM | > 10000 nM |
| CN(C)CCN1CCc2nc(-c3ccc(C4(N)CCC4)cc3)c(-c3ccccc3)cc2C1=O [Example 25] | 100 to 1000 nM | 1000 to 10000 nM | > 10000 nM |
